Laboratory results as given in patent publication US9452152B2, “Fe(III) complex compounds for the treatment and prophylaxis of iron deficiency symptoms and iron deficiency anemias” (Vifor (International) AG, priority 2012, dated 2016).

Columns and labels:
[1] = tested on: Male NMRI (SPF) mice fed a low-iron diet; test: Fe utilization in iron-deficient mouse model (hemoglobin and body weight increase); type: in vivo; conditions: for Utilization n 15 d (abs. %): mice, stomach tube, 2 mg iron/kg body weight/day, days 1-5 and 8-12, utilization on day 15; for iron utilization, Example according to the invention: comparison table, compounds of the invention
Experimental: The excellent Fe utilizations that can be accomplished through the Fe complexes according to the invention were measured by means of the following mouse model.
(In each case 6 animals per substance were used. There was a negative group (water) with 6 animals and as a positive group FeSO4 was used with 6 animals, too).
Male NMRI (SPF) mice (approximately 3 weeks old) were fed a low-iron diet (approx. 5 ppm iron) for approximately 3 weeks. The iron complexes were then administered to them by means of a stomach tube (2 mg iron/kg body weight/day) for 2 times 5 days, with an interruption of 2 days (days 1-5 and 8-12). Utilization on day 15 was calculated from the hemoglobin increase and the body weight increase in accordance with the formula
0.07=Factor for 70 ml blood per kg body weight (BW)
Hb1=Hemoglobin level (g/l) on day 1
Hb2(3)=Hemoglobin level (g/I) on day 8 (or 15)
BW4=body weight (g) on day 1
BW9(14)=body weight (g) on day 8 (or 15)
Hb1 Control=average hemoglobin level (g/l) on day 1 in the control group,
Hb2(3) Control=average hemoglobin level (g/l) on day 8 (or 15) in the control group,
BW4 Control=average body weight (g) on day 1 in the control group,
BW9(14) Control=average body weight (g) on day 8 (or 15) in the control group,
Fe Dos.=entire administered iron (mg Fe) over 5 or 10 days,
Δ Utilization=Fe tot. utilized (examined group)−Fe ut. Control group, utilized from food, (mg Fe)

[2] = Comparison of the pH-dependent solubility (photometric iron determination); type: physicochemical; conditions: water, pH 6.5 (phthalate buffer 0.1 m), 4 h, 25° C.; for Solubility based on amount of iron: ">" = weighed amount completely dissolved
Source text: The pH was adjusted to 6.5 with a phthalate buffer (0.1 m). […] UV device type SPECORD 205 manufacturer Jena Analytik). This value represents the solubility of the iron complex. If the weighed amount of the iron complex was completely dissolved, the measured value was indicated by the prefix “>”.

optical evaluation: dissolved? [2]	Solubility based on amount of iron [2]	Substance	Utilization n 15 d (abs. %) [1]	iron utilization, Example according to the invention ([1]; mouse model)	iron utilization (statement in words) ([1]; mouse model)
–	–	Tris-(2,4-dioxo-4-(pyrrolidine-1-yl)butaneamide)-iron(III)-complex [Example 4]	92 abs. %	–	–
–	–	Tris-(4-(morpholine-4-yl)-2,4-dioxobutaneamide)-iron(III)-complex [Example 2]	75 abs. %	75%	–
yes	>550 µg/mL	Tris-(N,N,N′,N′-tetramethyl-2-oxobutanediamide)-iron(III)-complex [Example 5]	82 abs. %	82%	–
–	–	Tris-(N,N-Dimethyl-3,4-dioxo-4-(pyrrolidine-1-yl)butaneamide)-iron(III) complex [Example 11]	50 abs. %	–	–
–	–	Tris-(N^1,N^4,N^4-trimethyl-2-oxobutanediamide)-iron(III)-complex [Example 7]	68 abs. %	–	–
no	580 µg/mL	Tris-(N^1-[2-(dimethylamino)-2-oxoethyl]-N^1,N^4,N^4-trimethyl-2-oxobutanediamide)-iron(III)-complex [Example 18]	78 abs. %	–	–
no	490 µg/mL	Tris-(N^4-(2-hydroxyethyl)-N^1,N^1,N^4-trimethyl-2-oxobutanediamide)-iron(III)-complex [Example 21]	86 abs. %	86%	–
yes	>510 µg/mL	Tris-(N^4-[2-(dimethylamino)-2-oxoethyl]-N^1,N^1,N^4-trimethyl-2-oxobutanediamide)-iron(III)-complex [Example 12]	80 abs. %	–	–
no	470 µg/mL	Tris-(ethyl-N-[4-(dimethylamino)-2,4-dioxobutanoyl]-N-methylglycinate)-iron(III)-complex [Example 17]	91 abs. %	–	–

Substance	optical evaluation: dissolved? [2]	Solubility based on amount of iron [2]	Utilization n 15 d (abs. %) [1]	iron utilization, Example according to the invention ([1]; mouse model)	iron utilization (statement in words) ([1]; mouse model)
Tris-(N^1-(2-methoxyethyl)-N^4,N^4-dimethyl-2-oxobutanamid)-iron(III)-complex [Example 16]	no	450 µg/mL	65 abs. %	–	–
Tris-(N^4,N^4-dimethyl-2-oxobutanediamide)-iron(III)-complex [Example 1]	yes	529 µg/mL	98 abs. %	98%	significantly improved iron utilization compared to Example 32 of WO11117225A1
Tris-(N^4-(2-methoxyethyl)-N^1,N^1,N^4-trimethyl-2-oxobutanediamide)-iron(III)-complex [Example 13]	yes	>520 µg/mL	70 abs. %	–	–
